One data set has as its system 11β-HSD type 1. Put plainly: Inhibition of conversion of prednisone to prednisolone after single administration to cynomolgus monkeys. Type of data set: in vivo. How it is done: The protocol used is described by Bhat et al. (J. Pharmacol. Exp. Ther. 324, 299-305, 2008).
Briefly, the study is carried out in naive adult male cynomolgus monkeys fasted overnight. The 11β-HSD type 1 inhibitor or its vehicle (0.5% methylcellulose in water) is administered via nasogastric intubation. Two hours later, a challenge with orally administered prednisone (10 mg/kg) is performed and blood samples are taken regularly for 24 hours. These samples are centrifuged to obtain plasma and immediately frozen at −70° C. until bioanalysis. Plasma levels of prednisone, prednisolone and 11β-HSD type 1 inhibitors are measured by LC-MS/MS analytical methods.
The study is carried out over a period of 10 weeks. Profiles of plasma concentration as a function of time and areas under the curve are calculated using the trapezoidal method for all parameters.
The effect of Compound 1 is evaluated at three doses: 1.25, 5 and 20 mg/kg.
The effect of Compound 1K is evaluated at three doses: 20, 40 and 80 mg/kg. The protocol is quite similar to the preceding, except that only 5 blood samples were taken per monkey rather than 7. Compound 1K was also evaluated over a period of 10 weeks.
The 11β-HSD type 1 activity-dependent conversion of prednisone to prednisolone was evaluated. Compound 2K inhibits roughly 50% this activity at a dose of 20 mg/kg (FIG. 2A). FIG. 2 represents the effects of Compound 2K, at the three doses tested, on plasma prednisolone/prednisone ratio calculated with the area under the curve between 30 minutes and 4 hours (panel A) and on plasma exposure during the 6-hour experimental period (panel B); the results obtained with Compound 1K at a dose of 5 mg/kg are compared in the two panels.

A short description of data set [1]: Plasma level by LC/MS after single oral administration in C57BL/6N mice. As to conditions: parent molecule by LC/MS. Type of data set: in vivo. As for the experimental part:
The evaluation is made in on 4- to 6-week-old non-fasted male C57BL/6N strain mice. The compounds to be tested or the vehicle (0.5% methylcellulose in water, at 10 ml/kg) are administered orally; n=3 mice per treatment.
Blood samples are collected 1 h and 4 h after administration; the tubes are centrifuged to obtain plasma and frozen at −70° C. until bioanalysis. Plasma bioactivity (2% final volume) is analyzed by using the inhibition of human 11β-HSD type 1 as a detection system (SPA technology) for each compound at each dose tested. Percent inhibition (versus mice treated with carrier) is calculated for each dose.
Compound 1 is detected in the plasma of the treated mice and inhibits 11β-HSD type 1 as of 0.63 mg/kg. LC/MS analyses of plasma samples from the animals treated with Compound 1K show a much higher plasma level of the parent molecule than that found for Compound 1.

Each structure is given as a SMILES string.

Regarding `CN1C(C(=O)c2ccc3ccccc3c2)=C([O-])c2ccccc2S1(=O)=O.[K+]` [Compound 1K, potassium 3-(2-naphthoyl)-2-methyl-2H-benzo[e][1,2]thiazin-4-olate 1,1-dioxide], the “inhibition of plasma prednisolone/prednisone ratio of AUC (30 minutes to 4 hours)” value in the data set on 11β-HSD type 1 (20 mg/kg, prednisone 10 mg/kg 2 h later) was found to be 81%. Also, the “inhibition of conversion of prednisone to prednisolone (prednisolone/prednisone AUC ratio)” value in the data set on 11β-HSD type 1 (40 mg/kg) was 79%; with 11β-HSD type 1 (80 mg/kg) it was 89%. The “"maximum" inhibition of plasma prednisolone/prednisone ratio of AUC (30 minutes to 4 hours)” value with 11β-HSD type 1 (all the doses tested (20, 40 and 80 mg/kg), 5 animals per group) is recorded as “at least 80%”. In data set [1] (10 mg/kg oral, 1 h), the “Plasma 1 h” value came to 13900 ± 2117 ng/mL. Also, the concentration at 1 h in data set [1] (male, C57BL/6N, mouse, plasma, po, 2.5 mg/kg, 2.5 mg/kg oral, 1 h) was 4240 ± 1260 ng/mL. Moreover, the concentration at 4 h in data set [1] (male, C57BL/6N, mouse, plasma, po, 2.5 mg/kg, 2.5 mg/kg oral) came out at 3470 ± 2430 ng/mL; in data set [1] (male, C57BL/6N, mouse, plasma, po, 10 mg/kg, 10 mg/kg oral) it was 6810 ± 674 ng/mL.

The record behind these values is US20180140609A1, “USE OF (4-HYDROXY-2-METHYL-1,1-DIOXIDO-2H-BENZO[E][1,2]THIAZINE-3-YL)(NAPHTHALENE-2-YL) METHANONE IN THE PREVENTION AND/OR TREATMENT OF NON-ALCOHOLIC STEATOHEPATITIS” (PIERRE FABRE MEDICAMENT, priority 2015, published 2018).
